Source: the Kinase Knowledgebase extract (Sharma et al. 2016)

How the values were obtained:
[1] = target: PIK3CD (UniProt O00329); experiment: PIK3-delta Kinase Inhibition
[2] = target: PIK3CA (UniProt P42336); experiment: PIK3-alpha Kinase Inhibition
[3] = target: PIK3CG (UniProt P48736); experiment: PIK3-gamma Kinase Inhibition
[4] = target: PIK3CB (UniProt P42338); experiment: PIK3-beta Kinase Inhibition
PIK3CB, sequence (P42338 whole entry, looked up): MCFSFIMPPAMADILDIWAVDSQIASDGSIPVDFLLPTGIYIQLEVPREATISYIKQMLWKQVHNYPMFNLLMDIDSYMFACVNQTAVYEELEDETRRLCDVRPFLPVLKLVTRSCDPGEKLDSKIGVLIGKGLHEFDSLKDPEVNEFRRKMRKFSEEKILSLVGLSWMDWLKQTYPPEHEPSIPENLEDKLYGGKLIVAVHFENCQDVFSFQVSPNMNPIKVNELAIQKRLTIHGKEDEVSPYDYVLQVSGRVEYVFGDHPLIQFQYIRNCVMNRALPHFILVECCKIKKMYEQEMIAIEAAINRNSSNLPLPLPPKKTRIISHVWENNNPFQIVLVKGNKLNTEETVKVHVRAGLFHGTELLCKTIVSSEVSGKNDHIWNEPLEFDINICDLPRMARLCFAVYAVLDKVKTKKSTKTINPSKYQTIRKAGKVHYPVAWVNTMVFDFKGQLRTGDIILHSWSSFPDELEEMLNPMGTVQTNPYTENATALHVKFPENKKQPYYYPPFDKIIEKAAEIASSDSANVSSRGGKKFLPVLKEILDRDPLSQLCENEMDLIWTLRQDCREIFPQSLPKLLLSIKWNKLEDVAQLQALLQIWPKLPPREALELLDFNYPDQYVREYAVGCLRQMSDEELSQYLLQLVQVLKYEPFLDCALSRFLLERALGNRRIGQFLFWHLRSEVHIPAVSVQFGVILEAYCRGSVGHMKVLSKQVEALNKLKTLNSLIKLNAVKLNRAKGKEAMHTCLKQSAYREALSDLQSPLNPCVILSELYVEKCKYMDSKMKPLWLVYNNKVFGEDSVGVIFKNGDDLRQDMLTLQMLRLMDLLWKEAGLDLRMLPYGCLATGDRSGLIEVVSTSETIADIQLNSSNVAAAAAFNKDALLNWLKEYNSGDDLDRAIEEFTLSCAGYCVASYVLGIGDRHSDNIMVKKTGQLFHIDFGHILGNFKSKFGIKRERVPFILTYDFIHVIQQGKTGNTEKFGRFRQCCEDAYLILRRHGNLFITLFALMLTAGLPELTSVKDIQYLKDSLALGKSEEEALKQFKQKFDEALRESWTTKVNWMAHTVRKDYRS

PIK3CA, sequence (P42336 whole entry, looked up): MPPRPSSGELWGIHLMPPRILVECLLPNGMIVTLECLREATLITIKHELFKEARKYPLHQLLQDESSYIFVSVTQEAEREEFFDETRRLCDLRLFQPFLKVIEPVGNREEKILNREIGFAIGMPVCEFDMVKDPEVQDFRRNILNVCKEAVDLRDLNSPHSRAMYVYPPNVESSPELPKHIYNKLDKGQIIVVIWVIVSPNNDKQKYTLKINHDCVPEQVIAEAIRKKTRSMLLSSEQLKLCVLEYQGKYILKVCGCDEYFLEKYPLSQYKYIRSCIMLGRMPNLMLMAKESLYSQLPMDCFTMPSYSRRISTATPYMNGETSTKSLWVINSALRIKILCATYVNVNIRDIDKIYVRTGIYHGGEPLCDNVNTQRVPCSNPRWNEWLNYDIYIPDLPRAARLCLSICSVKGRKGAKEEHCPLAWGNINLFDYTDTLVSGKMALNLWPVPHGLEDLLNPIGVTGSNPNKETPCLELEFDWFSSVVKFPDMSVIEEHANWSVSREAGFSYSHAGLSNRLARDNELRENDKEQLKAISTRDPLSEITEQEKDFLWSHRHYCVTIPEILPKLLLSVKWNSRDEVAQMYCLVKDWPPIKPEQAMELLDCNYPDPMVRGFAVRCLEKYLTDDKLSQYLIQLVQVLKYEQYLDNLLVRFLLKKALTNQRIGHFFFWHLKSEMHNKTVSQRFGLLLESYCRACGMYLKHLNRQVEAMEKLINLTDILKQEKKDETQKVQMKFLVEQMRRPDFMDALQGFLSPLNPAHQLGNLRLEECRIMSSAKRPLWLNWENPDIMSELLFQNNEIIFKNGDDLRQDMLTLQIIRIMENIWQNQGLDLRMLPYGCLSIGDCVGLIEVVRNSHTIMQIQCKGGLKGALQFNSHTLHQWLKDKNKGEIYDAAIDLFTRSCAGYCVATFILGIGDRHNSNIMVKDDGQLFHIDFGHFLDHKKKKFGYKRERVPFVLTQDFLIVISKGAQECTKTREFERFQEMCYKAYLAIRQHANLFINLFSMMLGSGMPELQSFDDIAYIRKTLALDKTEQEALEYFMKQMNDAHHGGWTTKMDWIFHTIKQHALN
PIK3CG, sequence (P48736 whole entry, looked up): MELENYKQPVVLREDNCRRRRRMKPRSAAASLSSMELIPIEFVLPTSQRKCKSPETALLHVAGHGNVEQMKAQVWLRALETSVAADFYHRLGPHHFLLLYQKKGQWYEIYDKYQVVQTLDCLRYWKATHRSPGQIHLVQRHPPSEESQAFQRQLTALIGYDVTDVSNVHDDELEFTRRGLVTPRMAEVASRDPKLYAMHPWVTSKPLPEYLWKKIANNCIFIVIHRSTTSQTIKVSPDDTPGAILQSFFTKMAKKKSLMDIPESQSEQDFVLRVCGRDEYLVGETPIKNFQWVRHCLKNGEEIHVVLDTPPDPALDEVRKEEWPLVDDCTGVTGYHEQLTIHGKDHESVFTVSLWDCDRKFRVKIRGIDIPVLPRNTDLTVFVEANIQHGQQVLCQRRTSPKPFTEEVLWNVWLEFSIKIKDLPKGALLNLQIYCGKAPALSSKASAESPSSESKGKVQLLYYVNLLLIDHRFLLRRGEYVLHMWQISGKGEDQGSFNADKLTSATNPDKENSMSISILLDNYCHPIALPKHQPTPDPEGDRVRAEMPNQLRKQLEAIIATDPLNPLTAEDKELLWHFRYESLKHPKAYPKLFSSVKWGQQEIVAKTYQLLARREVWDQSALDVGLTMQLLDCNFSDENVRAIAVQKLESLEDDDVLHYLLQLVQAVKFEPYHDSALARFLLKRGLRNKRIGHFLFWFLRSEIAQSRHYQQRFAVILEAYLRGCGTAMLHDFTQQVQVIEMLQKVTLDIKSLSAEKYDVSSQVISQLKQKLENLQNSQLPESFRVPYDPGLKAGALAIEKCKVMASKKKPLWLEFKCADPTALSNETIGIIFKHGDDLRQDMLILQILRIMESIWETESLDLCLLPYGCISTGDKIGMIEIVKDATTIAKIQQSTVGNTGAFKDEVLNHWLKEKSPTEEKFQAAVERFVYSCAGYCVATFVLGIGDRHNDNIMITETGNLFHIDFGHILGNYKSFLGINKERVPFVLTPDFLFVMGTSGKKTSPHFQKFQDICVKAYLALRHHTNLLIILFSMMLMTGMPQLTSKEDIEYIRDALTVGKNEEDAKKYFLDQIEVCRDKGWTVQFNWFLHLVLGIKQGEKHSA
PIK3CD, sequence (O00329 whole entry, looked up): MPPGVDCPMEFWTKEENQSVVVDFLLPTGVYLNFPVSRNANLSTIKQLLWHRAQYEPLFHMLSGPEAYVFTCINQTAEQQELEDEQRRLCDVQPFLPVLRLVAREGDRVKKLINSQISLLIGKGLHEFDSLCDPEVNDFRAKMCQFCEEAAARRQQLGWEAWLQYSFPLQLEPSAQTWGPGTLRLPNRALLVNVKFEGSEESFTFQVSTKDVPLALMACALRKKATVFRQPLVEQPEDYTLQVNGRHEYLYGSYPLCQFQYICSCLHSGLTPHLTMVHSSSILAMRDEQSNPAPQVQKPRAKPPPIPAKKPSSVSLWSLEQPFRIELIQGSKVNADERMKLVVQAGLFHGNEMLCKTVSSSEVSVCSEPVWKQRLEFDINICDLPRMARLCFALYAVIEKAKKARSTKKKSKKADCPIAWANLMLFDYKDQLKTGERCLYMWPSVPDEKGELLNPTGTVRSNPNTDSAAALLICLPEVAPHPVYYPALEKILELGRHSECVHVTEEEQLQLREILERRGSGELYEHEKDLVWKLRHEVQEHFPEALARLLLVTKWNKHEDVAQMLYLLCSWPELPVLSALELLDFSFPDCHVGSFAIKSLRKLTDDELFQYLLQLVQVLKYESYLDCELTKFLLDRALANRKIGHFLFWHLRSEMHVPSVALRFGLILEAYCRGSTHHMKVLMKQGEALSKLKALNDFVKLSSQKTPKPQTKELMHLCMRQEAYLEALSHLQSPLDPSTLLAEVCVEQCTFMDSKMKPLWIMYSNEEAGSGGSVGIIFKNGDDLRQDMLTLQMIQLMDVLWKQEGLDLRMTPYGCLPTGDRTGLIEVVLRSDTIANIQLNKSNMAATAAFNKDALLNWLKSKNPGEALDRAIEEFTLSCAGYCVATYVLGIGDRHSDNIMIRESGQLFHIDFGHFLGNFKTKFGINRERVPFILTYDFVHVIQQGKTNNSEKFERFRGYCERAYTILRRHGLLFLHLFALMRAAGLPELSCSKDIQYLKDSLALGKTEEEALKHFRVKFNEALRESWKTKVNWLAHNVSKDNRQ

Structure (SMILES): COc1ccccc1Nc1cc(C)cn2c(=O)cc(N3CCOCC3)nc12
- IC50 [1]: 10 µM
- IC50 [2]: 50 µM
- IC50 [3]: > 100 µM
- IC50 [4]: 20 µM

Structure (SMILES): Nc1cc(N2CCOCC2)ccc1[N+](=O)[O-]
- IC50 [1]: 24 µM
- IC50 [2]: 100 µM
- IC50 [3]: 100 µM
- IC50 [4]: 23 µM

Structure (SMILES): Cc1ccccc1Oc1cccc2c(=O)cc(N3CCOCC3)[nH]c12
- IC50 [1]: 0.63 µM
- IC50 [2]: 61 µM
- IC50 [3]: 100 µM
- IC50 [4]: 0.13 µM

Structure (SMILES): Cc1cc(-c2cccc(N)c2)c2nc(N3CCOCC3)cc(=O)n2c1
- IC50 [1]: 6.9 µM
- IC50 [2]: 14 µM
- IC50 [3]: 38 µM
- IC50 [4]: 18 µM

Structure (SMILES): O=c1cc(N2CCOCC2)oc2c(-c3ccccc3)cccc12
- IC50 [1]: 6 µM

Structure (SMILES): Cc1cc(NCc2ccccc2)c2nc(N3CCOCC3)cc(=O)n2c1
- IC50 [1]: 0.15 µM
- IC50 [2]: 8.1 µM
- IC50 [3]: 10 µM
- IC50 [4]: 0.16 µM

Structure (SMILES): O=C(CCl)c1ccc(N2CCOCC2)cc1O
- IC50 [1]: 4.8 µM
- IC50 [2]: 30 µM
- IC50 [3]: 70 µM

Structure (SMILES): CC(=O)c1ccc(N2CCOCC2)cc1O
- IC50 [1]: 3.8 µM
- IC50 [2]: 16 µM
- IC50 [3]: 10 µM
- IC80 [4]: 0.99 µM

Structure (SMILES): O=c1cc(N2CCOCC2)oc2ccccc12
- IC50 [1]: 13 µM
- IC50 [2]: 45 µM
- IC50 [3]: 100 µM
- IC50 [4]: 7.5 µM

Structure (SMILES): O=C(c1ccccc1)c1ccc(N2CCOCC2)cc1O
- IC50 [4]: 3.7 µM

Structure (SMILES): Cc1cc(Nc2ccc(C)c(C)c2)c2nc(N3CCOCC3)cc(=O)n2c1
- IC50 [1]: 5 µM
- IC50 [2]: 10 µM
- IC50 [3]: > 100 µM
- IC50 [4]: 14 µM

Structure (SMILES): Cc1cc(NCc2ccccc2C)c2nc(N3CCOCC3)cc(=O)n2c1
- IC50 [4]: 0.11 µM

Structure (SMILES): Cc1cc(Nc2cccc(C)c2C)c2nc(N3CCOCC3)cc(=O)n2c1
- IC50 [1]: 3.3 µM
- IC50 [2]: 6.2 µM
- IC50 [3]: 100 µM
- IC50 [4]: 3.5 µM

Structure (SMILES): Cc1cc(Br)c2nc(N3CCOCC3)cc(=O)n2c1
- IC50 [1]: 8.5 µM
- IC50 [2]: 58 µM
- IC50 [3]: > 100 µM
- IC50 [4]: 9.9 µM

Structure (SMILES): Cc1cc(Nc2ccccc2C)c2nc(N3CCOCC3)cc(=O)n2c1
- IC50 [1]: 3.8 µM
- IC50 [2]: 9 µM
- IC50 [3]: > 100 µM
- IC50 [4]: 3.3 µM

Structure (SMILES): Cc1cccc(CNc2cc(C)cn3c(=O)cc(N4CCOCC4)nc23)c1
- IC50 [1]: 0.39 µM
- IC50 [2]: 1.8 µM
- IC50 [3]: 25 µM
- IC50 [4]: 0.99 µM

Structure (SMILES): O=Cc1ccc(N2CCOCC2)cc1O
- IC50 [4]: 2.8 µM
